Measured values: ChEMBL document CHEMBL1201862, “PubChem BioAssay data set” (2004)
Calls of active or inactive are those of the source.

How the values were obtained:
[1] = target: Potassium channel subfamily K member 3 (Homo sapiens, UniProt O14649); assay: inhibition of human KCNK3 channel flux – CHO cells, FluxOR thallium flux, SAR follow-up (AID 652212); type: functional
[2] = Late stage assay provider results from the probe development effort to identify selective inhibitors of heat shock protein 90 (HSP90): Absorbance-based cell proliferation assay in SKBR3 cells.; type: functional; conditions: SK-BR-3
[3] = Late stage assay provider results from the probe development effort to identify selective inhibitors of heat shock protein 90 (HSP90): Absorbance-based cell proliferation assay in MCF7 cells.; type: functional
[4] = HepG2 cell viability loss – cherry-picked samples, cytotoxicity control, dose response (AID 1053183); type: functional, cell-based
[5] = MITF: Counter assay: A375 proliferation Measured in Cell-Based System Using Plate Reader - 2084-03_Inhibitor_Dose_DryPowder_Activity_Set8.; type: functional; conditions: A-375
[6] = MITF Orthogonal Assay: MALME3 CTG Assay Measured in Cell-Based System Using Plate Reader - 2084-04_Inhibitor_Dose_DryPowder_Activity_Set6.; type: functional; conditions: MALME-3
[7] = growth inhibition of SK-MEL-5 melanoma cells – cell-based, CellTiter-Glo luminescence, dry powder, set 8, orthogonal assay for MITF inhibitor project, dose response (AID 651586); type: functional
[8] = cytotoxicity in MITF-independent A375 cells – cell-based, CellTiter-Glo luminescence, dry powder, set 9, counter-screen for MITF modulator project, dose response (AID 651591); type: functional; conditions: A-375
[9] = growth inhibition of MALME3 cells – cell-based, CellTiter-Glo luminescence, dry powder, set 5, orthogonal assay for MITF inhibitor project, dose response (AID 651584); type: functional; conditions: MALME-3
[10] = inhibitors of TRPM1-promoter reporter in SK-MEL-5 – cell-based, luciferase, dry powder, set 8, MITF inhibitor project, dose response (AID 624430); type: functional
[11] = MITF Orthogonal Assay: SK-MEL-5 CTG Assay Measured in Cell-Based System Using Plate Reader - 2084-02_Inhibitor_Dose_DryPowder_Activity_Set7.; type: functional
[12] = inhibitors of TRPM1-promoter reporter in SK-MEL-5 – cell-based, luciferase, dry powder, set 9, MITF inhibitor project, dose response (AID 651588); type: functional
fMet-Leu-Phe receptor = fMet-Leu-Phe receptor (Homo sapiens, UniProt P21462); assay: formyl peptide receptor binders – dose response (AID 519); type: functional
[13] = A549 lung cell viability reduction – CellTiter-Glo luminescence, cherry-pick, cytotoxicity control, dose response (AID 743484); type: functional, cell-based
[14] = ATP-based viability loss in HEK293T cells – cell-based, CellTiter-Glo luminescence, cherry-picked samples, set 4, cytotoxicity control, dose response (AID 743441); type: functional; conditions: HEK293
[15] = target: E3 ubiquitin-protein ligase UHRF1 (Homo sapiens, UniProt Q96T88); assay: Counterscreen for inhibitors of 5-meCpG-binding domain protein 2 (MBD2): TRFRET-based biochemical high throughput dose response assay to identify inhibitors of binding of ubiquitin-like with PHD and ring finger domains 1 (UHRF1) to methylated oligonucleotide.
[16] = Counterscreen for activators of the function of SWI/SNF related, matrix associated, actin dependent regulator of chromatin, subfamily a, member 2 (SMARCA2, BRM): Luminescence-based cell-based high throughput dose response assay to identify non-selective compounds using the VP16 reporter assay.; type: functional
[17] = target: SWI/SNF-related matrix-associated actin-dependent regulator of chromatin subfamily A member 2 (Homo sapiens, UniProt P51531); assay: Luminescence-based cell-based high throughput dose response assay to identify activators of the function of SWI/SNF related, matrix associated, actin dependent regulator of chromatin, subfamily a, member 2 (SMARCA2, BRM).; type: functional
Chain of SWI/SNF-related matrix-associated actin-dependent regulator of chromatin subfamily A member 2 (P51531 whole entry): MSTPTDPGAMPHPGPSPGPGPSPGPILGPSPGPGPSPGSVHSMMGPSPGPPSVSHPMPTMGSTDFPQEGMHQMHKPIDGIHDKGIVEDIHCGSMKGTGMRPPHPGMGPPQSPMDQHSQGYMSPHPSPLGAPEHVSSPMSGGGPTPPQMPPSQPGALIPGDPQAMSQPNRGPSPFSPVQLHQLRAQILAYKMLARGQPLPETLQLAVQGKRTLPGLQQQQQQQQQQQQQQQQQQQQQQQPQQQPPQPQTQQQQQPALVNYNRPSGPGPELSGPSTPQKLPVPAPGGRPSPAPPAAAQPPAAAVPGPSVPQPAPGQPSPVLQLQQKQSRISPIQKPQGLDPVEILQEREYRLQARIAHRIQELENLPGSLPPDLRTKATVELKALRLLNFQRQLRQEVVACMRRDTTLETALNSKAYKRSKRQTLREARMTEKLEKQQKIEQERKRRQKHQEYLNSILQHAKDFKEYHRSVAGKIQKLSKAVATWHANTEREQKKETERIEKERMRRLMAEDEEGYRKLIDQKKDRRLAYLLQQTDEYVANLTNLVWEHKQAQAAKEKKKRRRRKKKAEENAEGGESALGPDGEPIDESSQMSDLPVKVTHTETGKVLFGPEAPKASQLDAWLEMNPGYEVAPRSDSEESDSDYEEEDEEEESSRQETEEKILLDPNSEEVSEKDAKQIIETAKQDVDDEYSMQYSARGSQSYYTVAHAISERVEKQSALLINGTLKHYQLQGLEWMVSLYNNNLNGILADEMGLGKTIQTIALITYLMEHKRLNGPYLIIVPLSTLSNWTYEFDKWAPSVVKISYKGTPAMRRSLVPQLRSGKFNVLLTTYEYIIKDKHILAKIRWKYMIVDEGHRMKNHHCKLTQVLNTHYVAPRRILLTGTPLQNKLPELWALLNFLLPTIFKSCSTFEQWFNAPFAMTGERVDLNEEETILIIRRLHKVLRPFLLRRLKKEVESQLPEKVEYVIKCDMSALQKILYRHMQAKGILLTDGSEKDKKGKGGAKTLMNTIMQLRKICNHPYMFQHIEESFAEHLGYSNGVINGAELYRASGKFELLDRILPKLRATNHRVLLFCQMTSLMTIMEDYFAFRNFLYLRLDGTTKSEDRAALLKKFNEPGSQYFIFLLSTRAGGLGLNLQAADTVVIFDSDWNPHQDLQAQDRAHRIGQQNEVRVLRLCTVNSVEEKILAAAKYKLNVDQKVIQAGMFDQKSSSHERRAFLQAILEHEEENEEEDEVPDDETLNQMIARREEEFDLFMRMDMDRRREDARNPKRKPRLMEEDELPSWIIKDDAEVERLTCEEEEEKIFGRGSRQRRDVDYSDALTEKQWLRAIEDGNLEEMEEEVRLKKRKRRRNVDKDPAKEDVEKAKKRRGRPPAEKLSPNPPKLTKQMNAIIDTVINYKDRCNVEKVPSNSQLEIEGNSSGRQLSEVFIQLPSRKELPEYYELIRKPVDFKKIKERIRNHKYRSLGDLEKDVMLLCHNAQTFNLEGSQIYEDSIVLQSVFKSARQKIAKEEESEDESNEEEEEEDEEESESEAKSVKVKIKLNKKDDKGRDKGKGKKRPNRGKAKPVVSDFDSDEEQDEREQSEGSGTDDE

[18] = Luminescence Cell-Based Dose Retest to Confirm Inhibitors of Cancer Stem Cells. [Related pubchem assays (depositor defined):AID2717, AID2721]; type: functional; conditions: Homo sapiens
[19] = viability loss in HepG2 hepatoma cells – cell-based, ATP luminescence, cherry-pick, activator set 2, cytotoxicity control, dose response (AID 1053143); type: functional
Kallikrein-7 = Kallikrein-7 (Homo sapiens, UniProt P49862); assay: Fluorescence Intensity-based biochemical primary high throughput dose response assay to identify activators of kallikrein-7 (K7) zymogen.
Chain of Kallikrein-7 (P49862 whole entry): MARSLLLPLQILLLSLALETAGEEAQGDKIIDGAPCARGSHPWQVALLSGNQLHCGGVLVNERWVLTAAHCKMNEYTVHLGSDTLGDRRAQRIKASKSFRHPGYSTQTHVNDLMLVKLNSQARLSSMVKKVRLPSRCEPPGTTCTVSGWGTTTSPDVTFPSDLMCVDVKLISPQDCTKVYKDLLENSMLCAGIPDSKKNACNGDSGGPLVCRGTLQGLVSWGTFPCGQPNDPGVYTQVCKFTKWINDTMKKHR

[20] = target: T1, Methionyl-tRNA synthetase, putative (Trypanosoma brucei brucei, UniProt Q38C91); type: functional, Trypanosoma brucei brucei strain 927/4 GUTat10.1
T1 sequence (Q38C91 whole entry): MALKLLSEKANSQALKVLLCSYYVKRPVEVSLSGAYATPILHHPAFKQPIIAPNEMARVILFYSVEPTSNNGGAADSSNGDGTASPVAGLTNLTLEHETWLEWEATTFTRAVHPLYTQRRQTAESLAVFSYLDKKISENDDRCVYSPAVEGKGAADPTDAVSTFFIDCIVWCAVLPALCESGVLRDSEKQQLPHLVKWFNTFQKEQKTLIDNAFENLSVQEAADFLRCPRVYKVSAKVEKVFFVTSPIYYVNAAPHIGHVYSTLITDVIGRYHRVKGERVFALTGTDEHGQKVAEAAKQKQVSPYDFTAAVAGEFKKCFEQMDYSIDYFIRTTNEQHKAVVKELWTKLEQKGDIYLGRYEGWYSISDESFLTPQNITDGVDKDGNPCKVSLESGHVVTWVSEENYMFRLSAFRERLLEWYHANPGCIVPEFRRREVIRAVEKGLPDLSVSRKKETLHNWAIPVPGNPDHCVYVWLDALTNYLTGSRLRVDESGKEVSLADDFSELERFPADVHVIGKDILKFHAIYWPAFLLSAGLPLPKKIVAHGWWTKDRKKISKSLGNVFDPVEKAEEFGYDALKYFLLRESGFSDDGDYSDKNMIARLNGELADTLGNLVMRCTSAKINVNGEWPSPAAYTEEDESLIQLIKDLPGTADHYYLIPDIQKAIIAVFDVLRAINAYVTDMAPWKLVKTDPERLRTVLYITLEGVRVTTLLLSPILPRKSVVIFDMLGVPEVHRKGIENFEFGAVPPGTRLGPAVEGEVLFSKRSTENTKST

[21] = Counterscreen for inhibitors of Trypanosoma brucei methionyl tRNA synthetase (MetRS): Luminescence-based cell-based high throughput dose response assay to identify compounds that are cytotoxic to Jurkat human T lymphocyte cells.; type: functional
[22] = Late stage counterscreen for inhibitors of Trypanosoma brucei methionyl tRNA synthetase (MetRS): Luminescence-based cell-based high throughput dose response assay to identify compounds that are cytotoxic to Jurkat human T lymphocyte cells.; type: functional
[23] = target: T1, Methionyl-tRNA synthetase, putative; type: functional, Trypanosoma brucei brucei strain 927/4 GUTat10.1; remark: listed apart in the source
[24] = viability loss in A549 lung cells – cell-based, 24 h, CellTiter-Glo luminescence, cherry-picks, cytotoxicity control, dose response (AID 1053115); type: functional; conditions: A549, 24 h
[25] = inhibition of ADAM10 peptide cleavage – biochemical, FRET peptide substrate, recombinant human ADAM10, selectivity assay for ADAM17 exosite inhibitor project, dose response (AID 743259);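 further: ADAM10 enzyme cleaving a FRET peptide substrate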
[26] = target: Disintegrin and metalloproteinase domain-containing protein 17 (Homo sapiens, UniProt P78536); assay: exosite inhibitors of ADAM17, dose response, biochemical (AID 743260)
[27] = inhibitors of non-replicating M. tuberculosis, dose response, luciferase, dry powder (AID 651619); type: functional; conditions: Mycobacterium tuberculosis
[28] = growth inhibition of replicating M. tuberculosis, dose response, counter-screen, dry powder, IC90 (AID 651617); type: functional; conditions: Mycobacterium tuberculosis
[29] = inhibitors of non-replicating M. tuberculosis, dose response, luciferase, dry powder (AID 651620); type: functional; conditions: Mycobacterium tuberculosis
Caspase-6 = Caspase-6 (Homo sapiens, UniProt P55212); assay: inhibition of CASP6 peptide cleavage – biochemical, VEID-R110 fluorescence, cherry-pick, dose response (AID 720632)
Chain of Caspase-6 (P55212 24-179 limits assumed): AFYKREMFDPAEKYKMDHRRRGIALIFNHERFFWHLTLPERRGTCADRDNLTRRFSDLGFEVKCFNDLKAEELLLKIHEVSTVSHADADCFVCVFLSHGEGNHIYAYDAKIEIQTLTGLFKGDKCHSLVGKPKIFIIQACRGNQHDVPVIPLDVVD
Chain of Caspase-6 (P55212 194-293 limits assumed): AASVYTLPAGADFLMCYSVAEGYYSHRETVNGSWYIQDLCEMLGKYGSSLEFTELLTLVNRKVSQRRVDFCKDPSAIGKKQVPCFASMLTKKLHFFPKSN

HEK293 = assay: viability loss in HEK293T cells – cell-based, ATP luminescence, cherry-pick samples, cytotoxicity control, dose response (AID 687005); type: functional; conditions: Homo sapiens;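 further: cells exposed to compound for 48 hours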
[30] = HEK293 Cytotoxicity Assay Measured in Cell-Based System Using Plate Reader - 7071-01_Inhibitor_Dose_CherryPick_Activity_Set2.; type: functional
HeLa = assay: viability loss in HeLa cells – cell-based, ATP luminescence, cherry-pick samples, cytotoxicity control, dose response (AID 687004); type: functional; conditions: Homo sapiens
Paired box protein Pax-8 = Paired box protein Pax-8 (Homo sapiens, UniProt Q06710); assay: PAX8 transcriptional activity inhibition in RMG-I – RMG-I cells, luciferase, cherry-pick, dose response (AID 687027); type: functional, cell-based;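 further: luciferase reporter driven by Pax8 target thyroperoxidase promoter measured by SteadyGlo luminescence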
Chain of Paired box protein Pax-8 (Q06710 whole entry): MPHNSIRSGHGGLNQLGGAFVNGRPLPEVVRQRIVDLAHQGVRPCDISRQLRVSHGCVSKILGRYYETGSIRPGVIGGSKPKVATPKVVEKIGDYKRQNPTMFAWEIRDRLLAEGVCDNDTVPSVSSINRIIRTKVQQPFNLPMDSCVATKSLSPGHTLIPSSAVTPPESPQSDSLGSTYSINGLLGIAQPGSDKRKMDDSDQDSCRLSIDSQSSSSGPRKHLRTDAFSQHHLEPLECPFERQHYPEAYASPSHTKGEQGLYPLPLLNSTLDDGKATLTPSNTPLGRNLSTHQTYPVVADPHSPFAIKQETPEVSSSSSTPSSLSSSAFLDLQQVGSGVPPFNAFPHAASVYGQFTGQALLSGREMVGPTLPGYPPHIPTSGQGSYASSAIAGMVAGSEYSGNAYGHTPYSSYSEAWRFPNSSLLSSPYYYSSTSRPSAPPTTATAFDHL

[31] = OVCAR-3 cell viability loss – plate reader, dry powder samples, PAX8 inhibitor project, dose response (AID 743044); type: functional, cell-based
[32] = PAX8-dependent cell viability loss – plate reader, dry powder, dose response (AID 743049); type: functional, cell-based
[33] = OV-90 cell viability loss – plate reader, dry powder, SA8, PAX8 inhibitor project, dose response (AID 743149); type: functional, cell-based
[34] = PAX5 cellular inhibition readout – cell-based, plate reader, dry powder samples, selectivity assay for PAX8 inhibitor project, dose response (AID 743047); type: functional;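 further: HEK293 cells carrying a Pax5 driven CD19 promoter luciferase reporter; potency of inhibitors that lower reporter luminescence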
[35] = inhibitors acting on PAX2 in cells – cell-based, plate reader, dry powder samples, selectivity assay for PAX8 inhibitor project, dose response (AID 743048); type: functional;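 further: HEK293 cells carrying a WT1 promoter luciferase reporter driven by expressed Pax2; potency is for inhibition of Pax2 driven reporter signal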
[36] = target: T2, Oxysterols receptor LXR-beta (Homo sapiens, UniProt P55055); type: functional, cell-based;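 further: agonist activity at LXR measured by a cell-based luminescence readout across a dose range, run as a counterscreen for daf-12 agonists; HEK293 cells with Gal4-LXR fusion and GAL4-driven luciferase reporter; potency for activation of Gal4-LXR reporter so compounds are agonists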
T2 sequence (P55055 whole entry): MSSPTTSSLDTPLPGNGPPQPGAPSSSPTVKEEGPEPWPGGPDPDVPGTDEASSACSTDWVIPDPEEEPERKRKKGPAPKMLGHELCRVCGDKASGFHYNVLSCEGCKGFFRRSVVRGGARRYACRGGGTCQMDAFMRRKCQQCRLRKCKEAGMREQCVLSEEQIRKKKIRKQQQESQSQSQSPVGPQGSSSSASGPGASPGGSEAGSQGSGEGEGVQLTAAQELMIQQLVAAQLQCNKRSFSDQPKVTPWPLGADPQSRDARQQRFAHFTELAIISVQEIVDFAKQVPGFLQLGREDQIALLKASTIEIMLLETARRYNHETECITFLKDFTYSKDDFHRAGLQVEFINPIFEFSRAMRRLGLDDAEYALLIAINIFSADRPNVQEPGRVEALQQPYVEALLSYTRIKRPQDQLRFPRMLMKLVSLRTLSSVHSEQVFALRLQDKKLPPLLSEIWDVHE

[37] = target: 1-phosphatidylinositol 4,5-bisphosphate phosphodiesterase beta-3 (Homo sapiens, UniProt Q01970); assay: Fluorescence-based biochemical high throughput dose response assay to identify inhibitors of phospholipase C isozymes (PLC-B3).
Chain of 1-phosphatidylinositol 4,5-bisphosphate phosphodiesterase beta-3 (Q01970 whole entry): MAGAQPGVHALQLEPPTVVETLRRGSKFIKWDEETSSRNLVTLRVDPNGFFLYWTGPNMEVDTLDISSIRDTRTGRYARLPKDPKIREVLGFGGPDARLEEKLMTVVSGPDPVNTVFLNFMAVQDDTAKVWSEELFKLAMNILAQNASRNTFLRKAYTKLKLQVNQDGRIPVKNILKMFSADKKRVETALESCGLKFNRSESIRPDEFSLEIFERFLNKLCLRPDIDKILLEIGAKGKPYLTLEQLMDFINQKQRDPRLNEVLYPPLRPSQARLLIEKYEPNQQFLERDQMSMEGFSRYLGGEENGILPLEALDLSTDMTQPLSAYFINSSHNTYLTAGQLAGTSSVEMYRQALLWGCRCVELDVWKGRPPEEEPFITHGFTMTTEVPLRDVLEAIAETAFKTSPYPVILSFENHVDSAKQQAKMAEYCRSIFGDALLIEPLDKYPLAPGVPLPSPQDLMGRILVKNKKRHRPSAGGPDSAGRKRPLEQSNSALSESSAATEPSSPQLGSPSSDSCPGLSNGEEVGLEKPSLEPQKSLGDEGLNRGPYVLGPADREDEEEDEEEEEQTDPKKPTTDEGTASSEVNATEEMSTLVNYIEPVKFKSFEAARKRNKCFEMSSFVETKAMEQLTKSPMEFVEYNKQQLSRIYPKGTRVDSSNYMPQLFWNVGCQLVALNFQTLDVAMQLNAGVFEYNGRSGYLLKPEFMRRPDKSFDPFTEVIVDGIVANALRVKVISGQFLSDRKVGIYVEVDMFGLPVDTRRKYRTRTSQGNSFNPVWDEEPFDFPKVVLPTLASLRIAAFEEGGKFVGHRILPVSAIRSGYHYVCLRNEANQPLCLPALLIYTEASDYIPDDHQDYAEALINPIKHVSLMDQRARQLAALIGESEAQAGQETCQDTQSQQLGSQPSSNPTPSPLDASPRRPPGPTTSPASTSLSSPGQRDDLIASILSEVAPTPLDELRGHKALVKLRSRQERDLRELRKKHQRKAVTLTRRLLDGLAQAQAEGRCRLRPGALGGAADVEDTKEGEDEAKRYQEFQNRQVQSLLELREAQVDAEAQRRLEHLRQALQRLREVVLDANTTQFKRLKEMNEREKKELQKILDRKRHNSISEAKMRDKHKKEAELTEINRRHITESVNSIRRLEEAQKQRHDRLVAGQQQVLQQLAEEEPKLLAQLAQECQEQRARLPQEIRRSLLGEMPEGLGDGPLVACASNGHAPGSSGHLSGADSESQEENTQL

[38] = target: 1-phosphatidylinositol 4,5-bisphosphate phosphodiesterase gamma-1 (Homo sapiens, UniProt P19174); assay: Counterscreen for inhibitors of phospholipase C isozymes (PLC-B3): Fluorescence-based biochemical high throughput dose response assay to identify inhibitors of phospholipase C isozymes (PLC-gamma1).
Chain of 1-phosphatidylinositol 4,5-bisphosphate phosphodiesterase gamma-1 (P19174 whole entry): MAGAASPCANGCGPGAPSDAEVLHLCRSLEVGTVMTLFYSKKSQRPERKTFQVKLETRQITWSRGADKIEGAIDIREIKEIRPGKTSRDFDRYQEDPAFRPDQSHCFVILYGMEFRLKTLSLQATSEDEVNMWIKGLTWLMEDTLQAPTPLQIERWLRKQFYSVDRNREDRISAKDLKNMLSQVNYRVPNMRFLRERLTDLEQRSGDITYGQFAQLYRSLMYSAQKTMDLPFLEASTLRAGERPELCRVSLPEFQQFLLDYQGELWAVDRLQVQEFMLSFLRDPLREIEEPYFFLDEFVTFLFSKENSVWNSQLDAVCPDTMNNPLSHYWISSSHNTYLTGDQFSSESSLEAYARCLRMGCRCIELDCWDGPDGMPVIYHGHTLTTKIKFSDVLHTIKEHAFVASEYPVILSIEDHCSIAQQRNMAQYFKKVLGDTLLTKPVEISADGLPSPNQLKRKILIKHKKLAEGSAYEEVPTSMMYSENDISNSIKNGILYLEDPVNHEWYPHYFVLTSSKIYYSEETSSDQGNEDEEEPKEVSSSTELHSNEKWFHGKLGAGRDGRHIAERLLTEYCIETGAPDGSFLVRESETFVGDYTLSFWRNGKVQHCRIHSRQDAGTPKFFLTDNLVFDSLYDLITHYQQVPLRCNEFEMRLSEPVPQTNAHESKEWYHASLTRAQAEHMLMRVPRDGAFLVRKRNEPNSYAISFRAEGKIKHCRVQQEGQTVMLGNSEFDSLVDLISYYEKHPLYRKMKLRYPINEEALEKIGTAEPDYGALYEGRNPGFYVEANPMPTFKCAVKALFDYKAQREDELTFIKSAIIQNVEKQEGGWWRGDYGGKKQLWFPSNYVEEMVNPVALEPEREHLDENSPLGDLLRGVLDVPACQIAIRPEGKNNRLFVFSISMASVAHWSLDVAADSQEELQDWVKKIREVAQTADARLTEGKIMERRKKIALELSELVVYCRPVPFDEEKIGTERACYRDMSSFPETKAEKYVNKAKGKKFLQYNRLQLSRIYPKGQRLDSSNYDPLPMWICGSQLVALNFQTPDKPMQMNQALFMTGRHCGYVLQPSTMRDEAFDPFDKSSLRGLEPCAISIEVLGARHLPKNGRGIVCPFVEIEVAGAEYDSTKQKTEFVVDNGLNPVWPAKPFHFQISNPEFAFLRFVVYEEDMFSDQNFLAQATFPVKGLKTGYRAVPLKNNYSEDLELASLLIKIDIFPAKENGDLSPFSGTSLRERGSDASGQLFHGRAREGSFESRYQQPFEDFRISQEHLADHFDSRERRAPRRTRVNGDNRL

O=C(Nc1cccc(NC(=O)c2cccc(F)c2)c1)c1ccccc1
IC50 [1]: 0.046 µM (active)

COc1ccc(NC(=O)c2ccc(NC(=O)c3coc(=O)c(Br)c3)cc2)cc1
IC50 [2]: 27.2 µM (inactive)
IC50 [3]: 12.1 µM (inactive)

O=S(=O)(c1ccc(F)cc1)N1C[C@@H]2N[C@H](C1)[C@@H]2c1ccc(/C=C/c2ccccc2)cc1
AC50 [4]: 19.1 µM (active)

CC(C)N1CCN(C2=C(Nc3ccc(F)cc3)C(=O)c3ccccc3C2=O)CC1
AC50 [5]: > 70 µM (inactive)
AC50 [6]: 38.6 µM (active)
AC50 [7]: > 70 µM (inactive)
AC50 [8]: > 70 µM (inactive)
AC50 [9]: 38.6 µM (active)
AC50 [10]: 3.6 µM (active)
AC50 [11]: 10.5 µM (active)
AC50 [12]: 9.77 µM (active)

COc1ccc(OC)c(C2C(C(=O)c3ccccc3)=C(O)C(=O)N2Cc2ccco2)c1 (centres undefined)
Ki (fMet-Leu-Phe receptor): 3.4 µM (active)

C=CCNC(=O)c1ccccc1NC(=O)c1ccc(Cl)c(S(=O)(=O)Nc2cccc(C)c2C)c1
AC50 [13]: 30.1 µM (active)
AC50 [14]: 36.7 µM (active)

COc1cccc2nc3c(C(=O)NCCN(C)C)cccc3cc12
IC50 [15]: > 43.8 µM (inactive)
EC50 [16]: > 91.2 µM (inactive)
EC50 [17]: > 10.1 µM (inactive)

Cc1ccc(C(=O)Nc2ncc(Cc3ccccc3)s2)o1
AC50 [18]: 0.319 µM (active)
AC50 [19]: 12 µM (active)

CSc1ccc(/C=C/C(=O)OCC(=O)NC2CCS(=O)(=O)C2)cc1 (centres undefined)
EC50 (Kallikrein-7): > 69.5 µM (inactive)

CN(CC(=O)Nc1ccc(Cl)cc1)C(=O)c1ccc(-n2cncn2)c([N+](=O)[O-])c1
IC50 [20]: 1.18 µM (active)
IC50 [21]: 83.3 µM (inactive)
IC50 [22]: > 83.3 µM (inactive)
IC50 [23]: 2 µM (active)

N#Cc1ccc(-c2ccc3c(c2)[C@H]2[C@H](CCN2C(=O)C2CCCCC2)[C@H](CO)N3)cc1
AC50 [24]: 42 µM (active)

CC(C)C(NS(=O)(=O)c1c(Cl)cccc1Cl)C(=O)OCC(=O)c1c[nH]c2ccccc12 (centres undefined)
IC50 [25]: > 7.72 µM (active)
IC50 [26]: > 69.5 µM (inactive)

c1ccc(-n2cc(CSc3nnc(C4CCCC4)o3)nn2)cc1
IC90 [27]: 1 µM (active)
IC90 [28]: 125 µM (active)
IC90 [29]: 1 µM (active)

Cc1cc(C2(O)C(=O)Nc3ccccc32)ccc1F (centres undefined)
AC50 (Caspase-6): 13 µM (active)

Cc1ccccc1CN(C)C[C@H]1OCc2cn(nn2)CCCC(=O)N([C@@H](C)CO)C[C@H]1C
AC50 (HEK293): 46.7 µM (active)
AC50 [30]: 46.7 µM (active)
AC50 (HeLa): 14.7 µM (active)

CC(=O)N1CCOc2ccc(S(=O)(=O)N3CCN(c4cccc(C(F)(F)F)c4)CC3)cc21
AC50 (Paired box protein Pax-8): 2.36 µM (active)
AC50 [31]: 17.9 µM (active)
AC50 [32]: 94.5 µM (active)
AC50 [33]: 63 µM (active)
AC50 [34]: 45.3 µM (active)
AC50 [35]: 30.9 µM (active)

CC(C)C(N)c1csc(Nc2nncc3ccccc23)n1 (centres undefined)
EC50 [36]: > 67.1 µM (inactive)

Cc1ccc(NC(=O)c2nn(C34CC5CC(CC(C5)C3)C4)cc2[N+](=O)[O-])cc1
IC50 [37]: > 122 µM (inactive)
IC50 [38]: > 122 µM (inactive)
